Laboratory results: patent publication US8470859B2, “Iminopyridine derivative and use thereof” (Takeda Pharmaceutical Company Limited, priority 2006, dated 2013)
pIC50: −log10 of the molar value.

Assays:
[1] = system: isolated bladder muscle of BOO model rat; assay: Effect of SNAP-8719 on α1 receptor stimulation-induced contraction of isolated bladder muscle of bladder outlet obstruction (BOO) model rat; conditions: phenylephrine 3 μmol/L, average value ± standard error, N=5-8
Experimental: Effect of SNAP-8719 on α1 Receptor Stimulation-Induced Contraction of Isolated Bladder Muscle of Bladder Outlet Obstruction (BOO) Model Rat
(§1) • (i) Seven-week-old male Wistar rats (CLEA Japan, Inc., Tokyo) were used. BOO rat was prepared according to publications (Hashimoto T, Nagabukuro H and Doi T: Effects of the selective acetylcholinesterase inhibitor TAK-802 on the voiding behavior and bladder mass increase in rats with partial bladder outlet obstruction. J Urol. 174: 1137-41., 2005.). After pentobarbital (50 mg/kg i.p., Dainippon Sumitomo Pharma Co., Ltd., Osaka) anesthesia, a lower middle abdominal incision was made to expose the bladder. The prostate was detached, the urethra was ligated along with a glass rod having an outer diameter of 1.2 mm, and the glass rod was removed to prepare partial obstruction of the urethra. After the surgery, the abdomen was sutured, and penicillin (2000 IU/rat, penicillin G potassium, MEIJI SEIKA KAISHA, LTD., Tokyo) was subcutaneously administered. An animal after 2 to 4 weeks from obstruction surgery was used. • (ii) Contractile Responses of Isolated Bladder Muscle (1) Preparation of Bladder Muscle Specimen
BOO model rat was sacrificed by decaptation, and the bladder was isolated. Muscle strips (length 7-10 mm in the longitudinal direction, width about 3 mm) were prepared from the bladder except bladder trigone (4-6 specimen from each bladder).
(§2) The prepared bladder muscle specimens were hung in a Magnus bath aerated with 95% O2-5% CO2 gas and filled with modified Krebs solution. The contraction tension was measured by an isometric strain transducer (TSD125C, Biopac systems, Santa Barbara, Calif., USA) and recorded in the hard disc of PC (ThinkCentre, IBM, USA) via an amplifier (DA100C, Biopac systems) and a multichannel data analysis apparatus (MP100A-CE, Biopac systems). For uptaking the data, a dedicated software (Acqknowledge 3.8.1., Biopac systems) was used and the sampling interval was set to 0.2 second (5 Hz). The specimens were hung with a load of about 1 g and, after an equilibration time of 1 hr or longer, the following experiment was performed.
The specimens were treated with phenylephrine (3 μmol/L) to induce contraction.
The standard deviation was measured for 5 minutes immediately before phenylephrine treatment and for 5 minutes after the contraction was stabilized after treatment (immediately before completion of the about 20 min observation time) and the difference was taken as 100%. The standard deviation was measured for 5 minutes immediately before completion of observation time (30 min) after the SNAP-8719 treatment, and the inhibition rate was calculated. In the vehicle treatment group, the variation rate of phenylephrine-induced contraction was calculated every time the specimens were repeatedly treated with the vehicle, and the inhibition rate of SNAP-8719 was adjusted based on the variation rate of the corresponding vehicle treatment group. • (iii) Action of SNAP-8719 on α1 Receptor Stimulation-Induced Contraction of Isolated Bladder Muscle of BOO Model Rat
After the phenylephrine-induced contraction was stabilized, the specimens were treated with the vehicle 0-4 times at 30 min intervals, treated with SNAP-8719 (1 μmol/L), and the variation in the contraction tension in 30 min was observed. […] Therefore, the evaluation by cumulative treatment with a drug was performed for up to 3 concentrations at 30 min intervals.

[2] = system: isolated bladder muscle of BOO model rat; assay: Effect of various drugs on α1 receptor stimulation-induced contraction of isolated bladder muscle of bladder outlet obstruction (BOO) model rat; conditions: phenylephrine 3 μmol/L
Experimental: Effect of Various Drugs on α1 Receptor Stimulation-Induced Contraction of Isolated Bladder Muscle of Bladder Outlet Obstruction (BOO) Model Rat
as §1
BOO model rat was sacrificed by decaptation, and the bladder was isolated. Muscle strips (length 7-10 mm, width about 3 mm) in the longitudinal direction were prepared from the bladder except bladder trigone (4-6 specimen from each bladder).
as §2
The specimens were treated with phenylephrine (3 μmol/L) to induce contraction. After the contractile response was stabilized (>20 min), the specimens were cumulatively treated 3 times with a drug at a 10-fold common ratio and 30 min intervals, and the variation in the tension was observed.
The variation in the tension due to α1 receptor stimulation was evaluated by the two methods shown below [average method and standard deviation (Stddev) method].
The average tension for one minute was measured immediately before phenylephrine treatment and after the contraction was stabilized after the treatment (immediately before completion of about 20 min observation time), and the difference was taken as 100%. The average tension for one minute was measured immediately before completion of observation time (30 min) after treatment with a drug at each concentration, and the inhibition rate of the drug at each concentration was calculated. In the vehicle treatment group, the variation rate of phenylephrine-induced contraction was calculated every time the specimens were treated 3 times with lo the solvent, and the inhibition rate of the drug at each concentration was adjusted based on the variation rate of the corresponding vehicle treatment group. The concentration (IC50) necessary for inhibiting the average tension by 50% by preclinical package (SAS Institute Japan, Ver. 5.0) was calculated based on the inhibition rate at each concentration.
The standard deviation was measured immediately before phenylephrine treatment and for 5 min after the contraction was stabilized after treatment (immediately before completion of the about 20 min observation time) and the difference was taken as 100%. […]

C[C@H](CN1CCN(c2cc(F)c(F)cc2F)CC1)N1C(=O)CC2(CCCC2)CC1=O [SNAP-8719]
inhibition rate of phenylephrine-induced contraction (standard deviation method, vehicle adjusted value) ([1]; SNAP-8719 1 μmol/L after treatment with vehicle 0 times): 51.2±12.4% | inhibition rate of phenylephrine-induced contraction (standard deviation method, vehicle adjusted value) ([1]; SNAP-8719 1 μmol/L after treatment with vehicle 1 time at 30 min intervals): 47.4±9.1% | inhibition rate of phenylephrine-induced contraction (standard deviation method, vehicle adjusted value) ([1]; SNAP-8719 1 μmol/L after treatment with vehicle 2 times at 30 min intervals): 66.6±8.7% | inhibition rate of phenylephrine-induced contraction (standard deviation method, vehicle adjusted value) ([1]; SNAP-8719 1 μmol/L after treatment with vehicle 3 times at 30 min intervals): 36.3±9.4% | inhibition rate of phenylephrine-induced contraction (standard deviation method, vehicle adjusted value) ([1]; SNAP-8719 1 μmol/L after treatment with vehicle 4 times at 30 min intervals): 8.7±32.3% | effect on the rhythmic contractile response induced by phenylephrine (average method and Stddev method), in words [2]: inhibited | pIC50 ([2]; concentration inhibiting the average tension by 50%, cumulative treatment, 3 concentrations, 30 min intervals, read-out: Inhibitory effect on phenylephrine-induced contraction IC50 (average method)): 6.44 | Inhibitory effect on phenylephrine-induced contraction IC30 (stddev method) ([2]; concentration inhibiting the sustained, rhythmic contractile responses by 30%, cumulative treatment, 3 concentrations, 30 min intervals): 180 nM
